The target of test [1] is T1, isolated recombinant SARS-CoV-2 M^pro (Severe acute respiratory syndrome coronavirus 2, UniProt P0DTD1). The experiment in a line: SPE-MS SARS-CoV-2 Mpro inhibition assay. In kind it is biochemical. The note with it: for IC50: SPE-MS, SARS-CoV-2 M^pro 0.05 μM, substrate peptide 2.0 μM, mean ± SD of two independent runs (n = 2); for fold increase in M^pro inhibition potency relative to γ-lactam 7: relative to 7; for fold more efficient M^pro inhibition than pyrazolidinone 6: relative to reported pyrazolidinone 6; for fold more efficient M^pro inhibition than γ-lactam 5: relative to reported γ-lactam 5.

Test [2] concerns the target T1, isolated recombinant SARS-CoV-2 M^pro. The format is binding. The settings on record: for covalent reaction with M^pro (protein-observed MS): M^pro 3.0 μM, γ-lactam 15 μM, 20 mM HEPES pH 7.5, 4 h incubation.
Test [3] has as its system M^pro. The arrangement: method as in PMID 37866713. The settings on record: reported M^pro inhibition; cited from earlier work.
Test [4] has as its target T1, isolated recombinant SARS-CoV-2 M^pro. The arrangement: method as in PMID 35549342. The settings on record: cited from earlier work; for IC50: reported M^pro inhibition.
Test [5] relates to M^pro. The settings on record: mass spectrometric analyses; cited from earlier work.

Like-named read-outs stand apart in the source and are kept apart here. Some results are limits rather than exact numbers.

The text below walks through data of PMC11110133, “Thiophene-fused γ-lactams inhibit the SARS-CoV-2 main protease via reversible covalent acylation” (Chemical Science, 2024).

For `CS(=O)(=O)N1C(=O)Cc2ccsc21` [C00001], the IC50 in test [1] (read-out: IC50) was found to be 8.5 ± 1.4 µM.

For `O=C1Cc2ccsc2N1S(=O)(=O)c1ccccc1` [23c], the “fold increase in M^pro inhibition potency relative to γ-lactam 7” value in test [1] is recorded as ~2 fold.

`CS(=O)(=O)N1C(=O)Cc2ccsc21` [compound 7]: in test [1] (read-out: IC50), the half-maximal inhibitory concentration (IC50) is ~8.5 µM. In addition, in test [1], the “fold more efficient M^pro inhibition than pyrazolidinone 6” value is given as ~5 fold and the “fold more efficient M^pro inhibition than γ-lactam 5” value is ~3 fold. Moreover, the “covalent reaction with M^pro (protein-observed MS)” value in test [2] is recorded as “react covalently”.

Take `CC(C)C1C(=O)N(S(C)(=O)=O)c2sccc21` (racemic) [C00012]: the IC50 in test [1] (read-out: IC50) came to 16 ± 2 µM.

As for `C=CCC1(CC=C)C(=O)N(S(C)(=O)=O)c2sccc21` [C00011], in test [1] (read-out: IC50), the IC50 was > 100 µM.

`CCCC1C(=O)N(S(C)(=O)=O)c2sccc21` (stereo not drawn) [C00010]: the IC50 in test [1] (read-out: IC50) worked out at 3.2 ± 0.8 µM.

As to `O=C1Cc2ccsc2N1S(=O)(=O)c1ccc(C(F)(F)F)cc1` [C00023], the IC50 in test [1] (read-out: IC50) was 1.3 ± 0.1 µM.

`CS(=O)(=O)N1C(=O)Cc2cscc21` [compound 9]: in test [1], the IC50 entry is reported as “did not inhibit”.

As for `O=C1Cc2ccsc2N1S(=O)(=O)Cc1ccccc1` [C00019], the IC50 in test [1] (read-out: IC50) was found to be 4.3 ± 0.1 µM.

Turning to `CS(=O)(=O)n1c(=O)n(S(C)(=O)=O)c2cscc21` [compound 10], the IC50 entry in test [1] is listed as “did not result in inhibition”.

For the molecule `CC(C)C1C(=O)N(S(C)(=O)=O)c2sccc21` (racemic) [16c], in test [1] (read-out: IC50), the IC50 was ~16 µM. For the same molecule, in test [1] (relative to propyl-substituted 16b), the “fold less efficient M^pro inhibition than 16b” value was ~5 fold.

On to `O=C(O)C1=C(C(=O)N(Cc2ccccc2)Cc2ccccc2)CN2C[C@H](NC(=O)[C@H](Cc3ccccc3)NC(=O)c3cc4ccccc4[nH]3)C(=O)N12` [compound 6], for which the IC50 with M^pro [3] is ~45 µM.

Take `CS(=O)(=O)N1C(=O)C2(CC=CC2)c2sccc21` [C00015]: the half-inhibitory concentration (IC50) in test [1] (read-out: IC50) is > 100 µM.

For the molecule `CS(=O)(=O)N1C(=O)Cc2ccccc21` [C00005], in test [1] (read-out: IC50), the IC50 was > 100 µM.

Turning to `CC1(C)C(=O)N(S(C)(=O)=O)c2sccc21` [C00008], in test [1] (read-out: IC50), the IC50 was > 100 µM.

Regarding `CC1C(=O)N(S(C)(=O)=O)c2sccc21` (stereo not drawn) [16a], the “fold increase in M^pro inhibition potency relative to γ-lactam 7” value in test [1] is ~2 fold. Also, the “complex observed after adding excess 24 to the M^pro:16a mixture (reversibility)” value in test [2] (16a with M^pro 2 h at 0 °C (1 : 5), then 24 for 3 h at 0 °C, SPE-MS) is “not detected”. Also, in test [2] (M^pro 3.0 μM pre-reacted with 24, then 16a 15 μM, 2 h), the “covalent reaction with the covalent M^pro:nirmatrelvir alkyne (24) complex (Cys145 blocked)” value was “does not covalently react”. Also, the “covalent reaction with M^pro (protein-observed MS)” value in test [2] is “react covalently”.

For `O=C1Cc2ccsc2N1S(=O)(=O)c1ccc([N+](=O)[O-])cc1` [C00022], in test [1] (read-out: IC50), the IC50 came out at 4.4 ± 0.7 µM.

Regarding `COc1ccc(S(=O)(=O)N2C(=O)Cc3ccsc32)cc1` [23d], the “covalent reaction with M^pro (protein-observed MS)” value in test [2] is given as “react covalently”.

Take `CS(=O)(=O)N1C(=O)C(CCC#N)c2ccsc21` (racemic) [C00007]: the IC50 in test [1] (read-out: IC50) turned out to be 2.7 ± 0.1 µM.

In the case of `CS(=O)(=O)N1C(=O)C(Cc2ccccc2)c2ccsc21` (racemic) [C00014], the 50% inhibitory concentration (IC50) in test [1] (read-out: IC50) is 4 ± 0.4 µM.

`CS(=O)(=O)N1C(=O)C2(CC=CC2)c2sccc21` [compound 19]: in test [1], the IC50 entry is on record as “did not efficiently inhibit”.

Take `CC1(C)C(C(=O)OCc2ccccc2)N2C(=O)C(NC(=O)COc3ccccc3)CC2S1(=O)=O` (stereo not drawn) [compound 5]: the “fold less efficient M^pro inhibition than β-lactam 3” value in test [4] (relative to β-lactam 3) is on record as ~4 fold. Besides, in test [4], the IC50 was ~26.1 µM. For the same molecule, the “covalent reaction with M^pro (reported)” value in the test on M^pro [5] is recorded as “did not react to form a stable acyl–enzyme complex”.

Take `C=CCC1C(=O)N(S(C)(=O)=O)c2sccc21` (racemic) [C00009]: in test [1] (read-out: IC50), the IC50 came to 3.5 ± 0.2 µM.

In the case of `CS(=O)(=O)N1C(=O)Cc2ccsc21` [C00017], the IC50 in test [1] (read-out: IC50) stood at 8.5 ± 1.4 µM.

With `CS(=O)(=O)N1C(=O)Cc2cscc21` [C00003], the IC50 in test [1] (read-out: IC50) is > 100 µM.

As to `CS(=O)(=O)N1C(=O)C(Cc2ccccc2)c2ccsc21` (racemic) [16d], the IC50 in test [1] (read-out: IC50) is ~4 µM.

Turning to `CC1(C)C(C(=O)OCc2ccccc2)N2C(=O)C(NC(=O)COc3ccccc3)C2S1(=O)=O` (stereo not drawn) [compound 3, penicillin V sulfone benzyl ester], the IC50 in test [4] was ~6.6 µM. Moreover, the “covalent reaction with M^pro (reported)” value in the test on M^pro [5] was “covalent reaction of its β-lactam with the active site Cys145”.

For `CC1(C)C(=O)N(S(C)(=O)=O)c2sccc21` [17a], the IC50 entry in test [1] was “did not inhibit”.

Regarding `CS(=O)(=O)N1C(=O)C(CCC#N)c2ccsc21` (racemic) [16e], in test [1] (read-out: IC50), the IC50 is ~2.7 µM.

As to `O=C1Cc2ccsc2N1S(=O)(=O)Cc1ccccc1` [23b], the “fold increase in M^pro inhibition potency relative to γ-lactam 7” value in test [1] is recorded as ~2 fold. Also, the “covalent reaction with M^pro (protein-observed MS)” value in test [2] is recorded as “react covalently”.

Turning to `C=CCC1(CC=C)C(=O)N(S(C)(=O)=O)c2sccc21` [17b], the IC50 result in test [1] is on record as “did not inhibit”.

Regarding `CS(=O)(=O)N1C(=O)Cc2sccc21` [C00002], the IC50 in test [1] (read-out: IC50) stood at 8.4 ± 0.5 µM.

As to `COc1ccc(S(=O)(=O)N2C(=O)Cc3ccsc32)cc1` [C00021], the IC50 in test [1] (read-out: IC50) amounted to 2.7 ± 0.2 µM.

Take `C=CCC1C(=O)N(S(C)(=O)=O)c2sccc21` (racemic) [16f]: in test [1] (read-out: IC50), the IC50 was ~3.5 µM.

Regarding `O=C1Cc2ccsc2N1S(=O)(=O)c1ccc(C(F)(F)F)cc1` [23f], the IC50 in test [1] (read-out: IC50) was ~1.3 µM. For the same molecule, in test [1], the “fold increase in M^pro inhibition potency relative to γ-lactam 7” value is on record as ~6 fold and the “fold more efficient M^pro inhibition than γ-lactam 5” value was ~20 fold. In addition, the “fold more potent than γ-lactam 23c” value in test [1] (relative to 23c) is ~3 fold. For the same molecule, the “fold more efficient M^pro inhibition than β-lactam 3” value in test [1] (relative to reported β-lactam 3) was ~6 fold.

On to `CS(=O)(=O)N1C(=O)Cc2sccc21` [compound 8], for which the IC50 in test [1] (read-out: IC50) is ~8.4 µM. Besides, in test [1], the “fold more efficient M^pro inhibition than pyrazolidinone 6” value is listed as ~5 fold and the “fold more efficient M^pro inhibition than γ-lactam 5” value was ~3 fold. In addition, in test [2], the “covalent reaction with M^pro (protein-observed MS)” value is recorded as “react covalently”.

As for `O=C1Cc2ccsc2N1S(=O)(=O)c1ccccc1` [C00020], the half-maximal inhibitory concentration (IC50) in test [1] (read-out: IC50) came out at 4.7 ± 1.1 µM.

Take `CS(=O)(=O)N1C(=O)C2(CC=CC2)c2ccsc21` [C00013]: the half-inhibitory concentration (IC50) in test [1] (read-out: IC50) is 61 ± 4 µM.

Regarding `CC(=O)N1C(=O)Cc2ccsc21` [23a], the IC50 result in test [1] was “ablated M^pro inhibition”.

On to `CC1C(=O)N(S(C)(=O)=O)c2sccc21` (stereo not drawn) [C00006], for which the IC50 in test [1] (read-out: IC50) was 3.9 ± 0.1 µM.

Turning to `CC(=O)N1C(=O)Cc2ccsc21` [C00018], in test [1] (read-out: IC50), the IC50 is > 100 µM.

With `CCCC1C(=O)N(S(C)(=O)=O)c2sccc21` (stereo not drawn) [16b], the “covalent reaction with M^pro (protein-observed MS)” value in test [2] is “react covalently”.

For the molecule `CS(=O)(=O)n1c(=O)n(S(C)(=O)=O)c2cscc21` [C00004], the IC50 in test [1] (read-out: IC50) is > 100 µM.

Take `CS(=O)(=O)N1C(=O)C2(CC=CC2)c2ccsc21` [compound 18]: in test [1], the IC50 entry is “did not efficiently inhibit”.

In the case of `CS(=O)(=O)N1C(=O)Cc2ccccc21` [compound 11], the IC50 entry in test [1] was “did not inhibit”.

As usually defined, the IC50 is the midpoint of a concentration-inhibition curve.
